US9211310B2, “Use of a Chinese medicine composition in preparing medicaments for treating secondary prevention of myocardial infarction” (TASLY PHARMACEUTICAL GROUP CO., LTD, priority 2010, dated 2015)

Test system: patients after acute myocardial infarction
Assay: Life quality, Seattle Angina Questionnaire (SAQ), same clinical trial
Format: in vivo, human
Conditions: Follow-up
From the text: 3508 patients who were in accordance with the diagnostic standards of AMI for 28 days to 2 years and differentiated as Qi deficiency and blood stagnation syndrome by TCM were studied. 0.5 g Chinese medicine composition prepared by the method of EXAMPLE 1 (Coded as QSYQ) was administrated half an hour after meal, 3 times per day.
There were 19 questions in the Seattle angina questionnaire (SAQ), including 5 parts: physical limitation (PL), anginal stability (AS), anginal frequency (AF), treatment satisfaction (TS) and disease perception (DP). After being given necessary explanation by doctors, the questions were answered independently by patients.
They included the overall survival time, angina pectoris score, TCM symptom score and life quality score, where angina pectoris score, TCM symptom score and life quality score were evaluated at randomization, in 1st, 3rd, 6th, 9th, 12th month after treatment and 18th month after follow-up.
All evaluation results of SAQ were described during the period of observation, and Wilcoxon rank sum test was used for inter-group comparison.
The evaluation results in the SAQ were depicted in different observations, and inter-group comparison was tested by Wilcoxon Rank-sum test.

CC(=O)Oc1ccccc1C(=O)O [Control group, aspirine]
SAQ Question 1-3: Slightly limited, number of patients (FAS): 190
SAQ Question 1-3: Slightly limited, percent of patients (FAS): (13.17%)
SAQ Question 1-4: Mildly limited, number of patients (FAS): 177
SAQ Question 1-4: Mildly limited, percent of patients (FAS): (12.28%)
SAQ Question 1-4: Moderately limited, number of patients (FAS): 38
SAQ Question 1-4: Moderately limited, percent of patients (FAS): (2.64%)
SAQ Question 1-4: Not limited, number of patients (FAS): 775
SAQ Question 1-4: Not limited, percent of patients (FAS): (53.78%)
SAQ Question 1-4: Other reasons, number of patients (FAS): 10
SAQ Question 1-4: Other reasons, percent of patients (FAS): (0.69%)
SAQ Question 1-4: Severely limited, number of patients (FAS): 5
SAQ Question 1-4: Severely limited, percent of patients (FAS): (0.35%)
SAQ Question 1-4: Slightly limited, number of patients (FAS): 436
SAQ Question 1-4: Slightly limited, percent of patients (FAS): (30.26%)
SAQ Question 1-5: Mildly limited, number of patients (FAS): 189
SAQ Question 1-5: Mildly limited, percent of patients (FAS): (13.12%)
SAQ Question 1-5: Moderately limited, number of patients (FAS): 57
SAQ Question 1-5: Moderately limited, percent of patients (FAS): (3.96%)
SAQ Question 1-5: Not limited, number of patients (FAS): 783
SAQ Question 1-5: Not limited, percent of patients (FAS): (54.34%)
SAQ Question 1-5: Other reasons, number of patients (FAS): 8
SAQ Question 1-5: Other reasons, percent of patients (FAS): (0.56%)
SAQ Question 1-5: Severely limited, number of patients (FAS): 9
SAQ Question 1-5: Severely limited, percent of patients (FAS): (0.62%)
SAQ Question 1-5: Slightly limited, number of patients (FAS): 395
SAQ Question 1-5: Slightly limited, percent of patients (FAS): (27.41%)
SAQ Question 1-9: Mildly limited, % of cases (FAS): (20.40%)
SAQ Question 1-9: Mildly limited, cases (FAS): 285
SAQ Question 1-9: Moderately limited, % of cases (FAS): (21.19%)
SAQ Question 1-9: Moderately limited, cases (FAS): 296
SAQ Question 1-9: Not limited, % of cases (FAS): (6.08%)
SAQ Question 1-9: Not limited, cases (FAS): 85
SAQ Question 1-9: Other reasons, % of cases (FAS): (4.65%)
SAQ Question 1-9: Other reasons, cases (FAS): 65
SAQ Question 1-9: Severely-limited, % of cases (FAS): (27.13%)
SAQ Question 1-9: Severely-limited, cases (FAS): 379
SAQ Question 1-9: Slightly limited, % of cases (FAS): (20.54%)
SAQ Question 1-9: Slightly limited, cases (FAS): 287
SAQ 2nd question: Clearly increased, % of cases (PP): (0.21%)
SAQ 2nd question: Clearly increased, cases (PP): 3
SAQ 2nd question: Clearly reduced, % of cases (PP): (27.66%)
SAQ 2nd question: Clearly reduced, cases (PP): 390
SAQ 2nd question: Same, % of cases (PP): (39.15%)
SAQ 2nd question: Same, cases (PP): 552
SAQ 2nd question: Slightly increased, % of cases (PP): (7.38%)
SAQ 2nd question: Slightly increased, cases (PP): 104
SAQ 2nd question: Slightly reduced, % of cases (PP): (25.60%)
SAQ 2nd question: Slightly reduced, cases (PP): 361
SAQ 3rd question: 1-2 times per week, % of cases (PP): (25.60%)
SAQ 3rd question: 1-2 times per week, cases (PP): 361
SAQ 3rd question: 1-3 times per day, % of cases (PP): (7.38%)
SAQ 3rd question: 1-3 times per day, cases (PP): 104
SAQ 3rd question: <1 time per week, % of cases (PP): (27.66%)
SAQ 3rd question: <1 time per week, cases (PP): 390
SAQ 3rd question: No onset, % of cases (PP): (0.00%)
SAQ 3rd question: No onset, cases (PP): 0
SAQ 3rd question: ≧3 times per week, % of cases (PP): (39.15%)
SAQ 3rd question: ≧3 times per week, cases (PP): 552
SAQ 3rd question: ≧4 times per day, % of cases (PP): (0.21%)
SAQ 3rd question: ≧4 times per day, cases (PP): 3
SAQ Question 1-3: Mildly limited, number of patients (PP): 30
SAQ Question 1-3: Mildly limited, percent of patients (PP): (2.13%)
SAQ Question 1-3: Moderately limited, number of patients (PP): 6
SAQ Question 1-3: Moderately limited, percent of patients (PP): (0.43%)
SAQ Question 1-3: Not limited, number of patients (PP): 1179
SAQ Question 1-3: Not limited, percent of patients (PP): (83.74%)
SAQ Question 1-3: Other reasons, number of patients (PP): 9
SAQ Question 1-3: Other reasons, percent of patients (PP): (0.64%)
SAQ Question 1-3: Severely limited, number of patients (PP): 2
SAQ Question 1-3: Severely limited, percent of patients (PP): (0.14%)
SAQ Question 1-3: Slightly limited, number of patients (PP): 182
SAQ Question 1-3: Slightly limited, percent of patients (PP): (12.93%)
SAQ Question 1-4: Mildly limited, number of patients (PP): 172
SAQ Question 1-4: Mildly limited, percent of patients (PP): (12.23%)
SAQ Question 1-4: Moderately limited, number of patients (PP): 37
SAQ Question 1-4: Moderately limited, percent of patients (PP): (2.63%)
SAQ Question 1-4: Not limited, number of patients (PP): 754
